Experimental data from patent publication US8853230B2, “Inhibitors of JAK” (Portola Pharmaceuticals, Inc., priority 2009, dated 2014).

Columns and labels:
JAK1 = target: T1, JAK1 (Homo sapiens, UniProt P23458); test: Z'-LYTE kinase assay, JAK1 tyrosine phosphorylation activity; assay type: biochemical; details: read-out: JAK 1 IC50
T1 construct: 5 μl of catalytic domain recombinant Kinase enzyme+Tyr peptide substrate (Invitrogen, Calif.); purchased Invitrogen
Summary of the method: (§1)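 Compounds are serially diluted 1:10 in DMSO and tested in duplicate at 1% final DMSO. Each recombinant catalytic domain phosphorylates the Tyr6 FRET peptide with ATP for 1 h at room temperature, then a site-specific protease cleaves unphosphorylated peptide over 1 h before coumarin/fluorescein emission is read.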

JAK2 = target: T2, JAK2 (Homo sapiens, UniProt O60674); test: Z'-LYTE kinase assay, JAK2 tyrosine phosphorylation activity; assay type: biochemical
T2 construct: 5 μl of catalytic domain recombinant Kinase enzyme+Tyr peptide substrate (Invitrogen, Calif.); purchased Invitrogen
T2 sequence (O60674 849-1124 limits assumed): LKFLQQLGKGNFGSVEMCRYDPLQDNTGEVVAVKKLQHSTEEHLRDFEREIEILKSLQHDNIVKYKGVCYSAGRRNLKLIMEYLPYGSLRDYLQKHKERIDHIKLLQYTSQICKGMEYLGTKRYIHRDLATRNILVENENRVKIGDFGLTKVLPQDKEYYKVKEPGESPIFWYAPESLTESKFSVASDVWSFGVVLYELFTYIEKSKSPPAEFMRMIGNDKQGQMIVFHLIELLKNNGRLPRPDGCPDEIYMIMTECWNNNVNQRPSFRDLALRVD
Summary of the method: as §1

JAK3 = target: T3, JAK3 (Homo sapiens, UniProt P52333); test: Z'-LYTE kinase assay, JAK3 tyrosine phosphorylation activity; assay type: biochemical
T3 construct: 5 μl of catalytic domain recombinant Kinase enzyme+Tyr peptide substrate (Invitrogen, Calif.); purchased Invitrogen
T3 sequence (P52333 822-1111 limits assumed): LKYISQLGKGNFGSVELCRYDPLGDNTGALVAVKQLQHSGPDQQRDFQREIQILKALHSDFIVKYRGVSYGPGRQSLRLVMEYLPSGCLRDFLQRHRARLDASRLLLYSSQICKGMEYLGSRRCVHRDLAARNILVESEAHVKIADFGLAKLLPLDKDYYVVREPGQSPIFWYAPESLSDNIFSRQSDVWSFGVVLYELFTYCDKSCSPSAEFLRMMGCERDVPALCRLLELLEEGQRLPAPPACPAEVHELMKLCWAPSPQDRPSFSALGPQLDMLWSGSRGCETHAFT
Summary of the method: as §1

TYK2 = target: T4, TYK2 (Homo sapiens, UniProt P29597); test: Z'-LYTE kinase assay, TYK2 tyrosine phosphorylation activity; assay type: biochemical
T4 construct: 5 μl of catalytic domain recombinant Kinase enzyme+Tyr peptide substrate (Invitrogen, Calif.); purchased Invitrogen
T4 sequence (P29597 897-1176 limits assumed): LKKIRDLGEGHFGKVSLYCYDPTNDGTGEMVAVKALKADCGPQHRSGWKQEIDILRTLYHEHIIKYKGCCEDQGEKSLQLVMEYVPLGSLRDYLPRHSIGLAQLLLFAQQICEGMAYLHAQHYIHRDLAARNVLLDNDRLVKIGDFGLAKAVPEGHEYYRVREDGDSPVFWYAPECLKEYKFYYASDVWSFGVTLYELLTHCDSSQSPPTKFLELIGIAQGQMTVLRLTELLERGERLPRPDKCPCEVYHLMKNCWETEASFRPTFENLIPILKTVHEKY
Summary of the method: as §1

[1] = test system: IL4-induced phospho STAT6 formation in Ramos B lymphocytes; test: Inhibition of IL4-induced phospho STAT6 formation in Ramos B lymphocytes (flow cytometry); assay type: cell-based, human; details: Homo sapiens; for inhibition at 0.2 µM: 200 nM compound, read-out: % Inhibition of IL-4 Induced STAT6 Phosphorylation 200 nM; for inhibition at 1 µM: 1 μM compound, read-out: % Inhibition of IL-4 Induced STAT6 Phosphorylation 1 μM
Summary of the method: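 Read-out: phospho-STAT6 (Y641) mean fluorescent intensity by intracellular flow cytometry, expressed as inhibition of the IL4-induced signal. Ramos B lymphocytes were given compound for 1 h at 37°C, then 1 ng/ml IL4 for 10 min, before fixation and methanol permeabilization.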

Syk = Syk (Homo sapiens, UniProt P43405); test: Syk IC50 (Table 1; method not given); assay type: biochemical

T1 sequence (P23458 875-1153 limits assumed): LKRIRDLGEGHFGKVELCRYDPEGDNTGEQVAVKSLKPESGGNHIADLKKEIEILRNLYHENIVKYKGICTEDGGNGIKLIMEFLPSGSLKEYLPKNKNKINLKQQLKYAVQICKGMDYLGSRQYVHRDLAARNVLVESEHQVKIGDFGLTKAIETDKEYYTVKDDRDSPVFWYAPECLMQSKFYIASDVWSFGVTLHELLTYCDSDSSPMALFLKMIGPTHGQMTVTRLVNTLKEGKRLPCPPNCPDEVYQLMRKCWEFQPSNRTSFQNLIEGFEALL

| SMILES | IC50 (JAK1) | IC50 (JAK2) | IC50 (JAK3) | IC50 (TYK2) | IC50 (Syk) | inhibition at 0.2 µM [1] | inhibition at 1 µM [1] |
| --- | --- | --- | --- | --- | --- | --- | --- |
| NC(=O)c1cnc(Nc2cccc(NC(=O)C3CCC3)c2)nc1NCc1ccccc1 [Example 27, 4-(benzylamino)-2-(3-(cyclobutanecarboxamido)phenylamino)pyrimidine-5-carboxamide] | 100 to 1000 nM | 10 to 100 nM | 1 to 10 nM | 10 to 100 nM | > 1000 nM | 7% | 54.3% |
| NC(=O)c1cnc(Nc2cccc(NC(=O)N3CCCC3)c2)nc1NCc1ccccc1 [Example 40, 4-(benzylamino)-2-(3-(pyrrolidine-1-carboxamido)phenylamino)pyrimidine-5-carboxamide] | 10 to 100 nM | 10 to 100 nM | < 1 nM | 1 to 10 nM | > 1000 nM | 47.2% | 78.8% |
| COCC(=O)Nc1cccc(Nc2ncc(C(N)=O)c(NCc3ccccc3)n2)c1 [Example 29, 4-(benzylamino)-2-(3-(2-methoxyacetamido)phenylamino)pyrimidine-5-carboxamide] | 10 to 100 nM | 10 to 100 nM | 1 to 10 nM | 1 to 10 nM | > 1000 nM | 37.5% | 80% |
| CNC(=O)Nc1cccc(Nc2ncc(C(N)=O)c(NCc3ccccc3)n2)c1 [Example 39, 4-(benzylamino)-2-(3-(3-methylureido)phenylamino)pyrimidine-5-carboxamide] | 10 to 100 nM | 10 to 100 nM | 1 to 10 nM | 1 to 10 nM | > 1000 nM | 15% | 60% |
| NC(=O)c1cnc(Nc2cccc(NC(=O)C3CC3)c2)nc1NCc1ccccc1 [Example 26, 4-(benzylamino)-2-(3-(cyclopropanecarboxamido)phenylamino)pyrimidine-5-carboxamide] | 100 to 1000 nM | 10 to 100 nM | 1 to 10 nM | 1 to 10 nM | > 1000 nM | 7.3% | 45.7% |
| CC(=O)Nc1cccc(Nc2ncc(C(N)=O)c(NC3CCCCC3)n2)c1 [Example 52, 2-(3-acetamidophenylamino)-4-(cyclohexylamino)pyrimidine-5-carboxamide] | 10 to 100 nM | 10 to 100 nM | 1 to 10 nM | 1 to 10 nM | 100 to 1000 nM | 63% | 94% |
| COCC(=O)Nc1cccc(Nc2ncc(C(N)=O)c(N[C@H](C)c3ccccc3)n2)c1 [Example 47, (R)-2-(3-(2-methoxyacetamido)phenylamino)-4-(1-phenylethylamino)pyrimidine-5-carboxamide] | 100 to 1000 nM | 10 to 100 nM | 1 to 10 nM | 10 to 100 nM | > 1000 nM | 25.3% | 77.7% |
| CC(=O)Nc1cccc(Nc2ncc(C(N)=O)c(NCc3ccccc3)n2)c1 [Example 17, 2-(3-acetamidophenylamino)-4-(benzylamino)pyrimidine-5-carboxamide] | 10 to 100 nM | 1 to 10 nM | < 1 nM | 1 to 10 nM | 100 to 1000 nM | 34% | 73.7% |
| NC(=O)c1cnc(Nc2cccc(NC(=O)N3CCCC3)c2)nc1NC1CCCC1 [Example 37, 4-(cyclopentylamino)-2-(3-(pyrrolidine-1-carboxamido)phenylamino)pyrimidine-5-carboxamide] | 10 to 100 nM | 10 to 100 nM | 1 to 10 nM | 1 to 10 nM | > 1000 nM |  |  |
| COC(=O)Nc1cccc(Nc2ncc(C(N)=O)c(NCC(F)(F)F)n2)c1 [Example 4, Methyl 3-(5-carbamoyl-4-(2,2,2-trifluoroethylamino)pyrimidin-2-ylamino)phenylcarbamate] | 10 to 100 nM | 10 to 100 nM | 10 to 100 nM | 10 to 100 nM | 100 to 1000 nM |  |  |

Now from value to compound, other results behind:

| IC50 (JAK1) | IC50 (JAK2) | IC50 (JAK3) | IC50 (TYK2) | IC50 (Syk) | SMILES | inhibition at 0.2 µM [1] | inhibition at 1 µM [1] |
| --- | --- | --- | --- | --- | --- | --- | --- |
| 10 to 100 nM | 10 to 100 nM | < 1 nM | 10 to 100 nM | > 1000 nM | C[C@@H](Nc1nc(Nc2cccc(NC(=O)N3CC[C@H](O)C3)c2)ncc1C(N)=O)c1ccccc1 [Example 128, 2-(3-((S)-3-hydroxypyrrolidine-1-carboxamido)phenylamino)-4-((R)-1-phenylethylamino)pyrimidine-5-carboxamide] | 31.7% | 82.7% |
| 100 to 1000 nM | 100 to 1000 nM | 10 to 100 nM | 100 to 1000 nM | > 1000 nM | CC(=O)Nc1cccc(Nc2ncc(C(N)=O)c(N[C@H](CO)Cc3cnc[nH]3)n2)c1 [Example 60, (S)-2-(3-acetamidophenylamino)-4-(1-hydroxy-3-(1H-imidazol-5-yl)propan-2-ylamino)pyrimidine-5-carboxamide] | 12.5% | 23% |
| 100 to 1000 nM | 10 to 100 nM | 1 to 10 nM | 10 to 100 nM | > 1000 nM | C[C@@H](Nc1nc(Nc2cccc(NC(=O)N3CC=CC3)c2)ncc1C(N)=O)c1ccccc1 [Example 121, (R)-2-(3-(2,5-dihydro-1H-pyrrole-1-carboxamido)phenylamino)-4-(1-phenylethylamino)pyrimidine-5-carboxamide] | 18.3% | 61.7% |
| 10 to 100 nM | 10 to 100 nM | 1 to 10 nM | 1 to 10 nM | > 1000 nM | CC[C@H](C)[C@@H](CO)Nc1nc(Nc2cccc(NC(C)=O)c2)ncc1C(N)=O [Example 73, 2-(3-acetamidophenylamino)-4-((2S,3S)-1-hydroxy-3-methylpentan-2-ylamino)pyrimidine-5-carboxamide] | 17.1% | 55.6% |
| 10 to 100 nM | 10 to 100 nM | 1 to 10 nM | 10 to 100 nM | 100 to 1000 nM | CC(=O)Nc1cccc(Nc2ncc(C(N)=O)c(NCC3CCCN(C(C)=O)C3)n2)c1 (stereo not drawn) [Example 119, 2-(3-acetamidophenylamino)-4-((1-acetylpiperidin-3-yl)methylamino)pyrimidine-5-carboxamide] | 9% | 63% |
| 100 to 1000 nM | 100 to 1000 nM | 1 to 10 nM | 10 to 100 nM | > 1000 nM | NC(=O)c1cnc(Nc2ccc(Cl)c(NC(=O)N3CCCC3)c2)nc1NCc1ccccc1 [Example 130, 4-(benzylamino)-2-(4-chloro-3-(pyrrolidine-1-carboxamido)phenylamino)pyrimidine-5-carboxamide] | 0.7% | 19% |
| 100 to 1000 nM | 100 to 1000 nM | 100 to 1000 nM | 100 to 1000 nM | > 1000 nM | CC(=O)Nc1cccc(Nc2ncc(C(N)=O)c(N[C@@H]3CCCNC3)n2)c1 [Example 66, (R)-2-(3-acetamidophenylamino)-4-(piperidin-3-ylamino)pyrimidine-5-carboxamide] |  |  |
| 10 to 100 nM | 1 to 10 nM | 1 to 10 nM | 10 to 100 nM | > 1000 nM | CC(=O)N(C)c1cccc(Nc2ncc(C(N)=O)c(NC3CCCC3)n2)c1 [Example 78, 4-(cyclopentylamino)-2-(3-(N-methylacetamido)phenylamino)pyrimidine-5-carboxamide] |  |  |
| 10 to 100 nM | 10 to 100 nM | 1 to 10 nM | 10 to 100 nM | 100 to 1000 nM | COC(CNc1nc(Nc2cccc(NC(C)=O)c2)ncc1C(N)=O)c1ccccc1 (stereo not drawn) [Example 84, 2-(3-acetamidophenylamino)-4-(2-methoxy-2-phenylethylamino)pyrimidine-5-carboxamide] |  |  |
| 100 to 1000 nM | 1 to 10 nM | 1 to 10 nM | 10 to 100 nM | > 1000 nM | CC(=O)N(C)c1cccc(Nc2ncc(C(N)=O)c(N[C@H](C)c3ccccc3)n2)c1 [Example 87, (R)-2-(3-(N-methylacetamido)phenylamino)-4-(1-phenylethylamino)pyrimidine-5-carboxamide] |  |  |
| 100 to 1000 nM | 10 to 100 nM | 10 to 100 nM | 10 to 100 nM | 100 to 1000 nM | CC(=O)Nc1cccc(Nc2ncc(C(N)=O)c(NC[C@H](C)O)n2)c1 [Example 82, (S)-2-(3-acetamidophenylamino)-4-(2-hydroxypropylamino)pyrimidine-5-carboxamide] |  |  |
| 100 to 1000 nM | 10 to 100 nM | 10 to 100 nM | 10 to 100 nM | > 1000 nM | CC(=O)N(C)c1cccc(Nc2ncc(C(N)=O)c(NC(C)C)n2)c1 [Example 77, 4-(isopropylamino)-2-(3-(N-methylacetamido)phenylamino)pyrimidine-5-carboxamide] |  |  |
